Measured values published in paper PMC4822888, “Subtype-Selective Small Molecule Inhibitors Reveal a Fundamental Role for Nav1.7 in Nociceptor Electrogenesis, Axonal Conduction and Presynaptic Release” (PLoS ONE, 2016).
Like-named read-outs stand apart in the source and are kept apart here.

Columns and labels:
[1] = system: small diameter mouse DRG neurons; format: cell-based
[2] = system: substantia gelatinosa (SG) neurons of the superficial dorsal horn
mouse Nav1.7 = mouse Nav1.7 (Mus musculus, UniProt Q62205); format: cell-based
mouse Nav1.1 = mouse Nav1.1 (Mus musculus, UniProt A2APX8); format: cell-based; details: recombinant mouse Nav1.1
[3] = system: small diameter mouse DRG neurons; test: Current clamp of action potentials in small diameter mDRG neurons; format: cell-based
Description: Dorsal root ganglia (DRG) were isolated and dissociated according to a previously published method. Briefly, DRGs were obtained from all spinal locations and dissociated neurons plated on glass coverslips pre-coated with poly-D-lysine/laminin (BD Biosciences) and left to adhere for 1.5–2 hrs before flooding. Growth media consisted of Lebovitz L-15 Glutamax (Life Technologies) supplemented with 10% FCS, 24 mM NaHCO3 and 38 mM glucose.
Electrophysiological recordings were obtained from stably transfected HEK 293 cells, acutely dissociated mouse DRG neurons, cultured human DRG neurons or mouse superficial dorsal horn neurons using either an Axopatch 200B or […] amplifier (Molecular Devices), or EPC-10 USB amplifier (HEKA). Small diameter mouse DRG neurons were identified as those with a whole cell capacitance between 10–25 pF [17]. For human DRG neurons, patch clamp recordings were obtained from small-to-medium diameter neurons (<60 μm), the majority of which have previously been classified as nociceptors.
ECS contained (in mM) 135 NaCl, 4.7 KCl, 1 CaCl2, 1 MgCl2, 10 HEPES and 10 glucose (300–310 mOsm, pH 7.4 with NaOH). ICS contained (in mM) 140 KCl, 0.5 EGTA, 5 HEPES, and 3 Mg-ATP, (pH 7.3 with KOH, 300–305 mOsm). Single action potentials were evoked from Vm -70 mV by a 20 ms suprathreshold current step (0.1 Hz).

mDRG neurons = test: Action potential voltage clamp in mDRG neurons; format: cell-based, mouse; details: 30 nM, p < 0.05
Description: Recordings were performed as described in Blair & Bean (2002). Briefly, the internal solution contained (in mM): 140 K-Mes, 13.5 NaCl, 1.6 MgCl2, 0.09 EGTA, 9 HEPES, 0.9 glucose, 14 Tris-creatine PO4, 4 Mg-ATP, and 0.3 Tris-GTP (285–300 mOsm, pH 7.2 with KOH). The ECS was identical to that used for current clamp recordings (see above). Action potentials were recorded in current clamp mode following a 20 ms current injection from a Vm of -70 mV. The same cell was then examined under voltage-clamp (-70 mV) whereby the recorded action potential was used as the voltage command. Series resistance was compensated for by up to 80%.

[4] = system: substantia gelatinosa (SG) neurons; test: Current clamp action potentials in SG neurons of mouse spinal cord slices; format: cell-based; details: 30 nM
[5] = system: synaptosomes prepared from L4/L5 spinal cord sections; parameters: species or system mouse
Description: A lumbosacral laminectomy was performed and a segment of lumbar spinal cord was removed into a petri dish containing ice-cold pre-oxygenated aCSF. The dura mater, ventral and dorsal roots and the pia-arachnoid membrane were removed. A small segment of the spinal cord containing only the lumbar region (L4–L5) was dissected free, weighed and placed into ice-cold homogenization buffer composition (mM) 0.32 M sucrose, 10 mM HEPES (pH 7.4, bubbled with 100% O2). Spinal cord tissue was homogenized in buffer using 20 strokes of a glass/glass hand homogenizer. The crude homogenate was diluted with 3 mL of ice-cold homogenization buffer and centrifuged at 1000 x g for 5 mins at 4°C. Synaptosomes were isolated from the supernatant by an additional centrifugation at 20,000 x g for 2 mins at 4°C. The synaptosomal pellet was resuspended in 3 mL of Krebs buffer with composition (in mM): NaCl 118, KCl 2.4, CaCl2 2.4, MgSO4 1.2, KH2PO4 1.2, NaHCO3 25, glucose 10, pH 7.4 (bubbled with 95% O2 and 5% CO2). Protein quantification was performed on the synaptosomal solution using the Bradford colorimetric protein assay and bovine serum albumin standards. Samples were diluted to obtain a final concentration of 0.1 mg mL^-1 for CGRP evaluation and 100 μL samples of the synaptosomal solution was pipetted into eppendorfs. Synaptosomes were incubated at 37°C for 10 mins in the presence of test compounds or DMSO (1 μl total volume). Synaptosomes were stimulated using Veratridine 10 μM in the presence of Thiorphan (10 μM) and incubated for a further 10 mins at 37°C. Samples were then filtered using […] filters and 100 μl of the filtrate was transferred to CGRP ELISA plate (Bertin Pharma) and assayed according to the manufactures instructions.

WT mice = test: Capsaicin flare response in WT mice; format: in vivo, mouse; details: 55 mins, vehicle 4930 ± 751
[6] = system: substantia gelatinosa (SG) neurons of the superficial dorsal horn; test: cells; details: Mus musculus, Neuron

Chain of mouse Nav1.7 (Q62205 whole entry): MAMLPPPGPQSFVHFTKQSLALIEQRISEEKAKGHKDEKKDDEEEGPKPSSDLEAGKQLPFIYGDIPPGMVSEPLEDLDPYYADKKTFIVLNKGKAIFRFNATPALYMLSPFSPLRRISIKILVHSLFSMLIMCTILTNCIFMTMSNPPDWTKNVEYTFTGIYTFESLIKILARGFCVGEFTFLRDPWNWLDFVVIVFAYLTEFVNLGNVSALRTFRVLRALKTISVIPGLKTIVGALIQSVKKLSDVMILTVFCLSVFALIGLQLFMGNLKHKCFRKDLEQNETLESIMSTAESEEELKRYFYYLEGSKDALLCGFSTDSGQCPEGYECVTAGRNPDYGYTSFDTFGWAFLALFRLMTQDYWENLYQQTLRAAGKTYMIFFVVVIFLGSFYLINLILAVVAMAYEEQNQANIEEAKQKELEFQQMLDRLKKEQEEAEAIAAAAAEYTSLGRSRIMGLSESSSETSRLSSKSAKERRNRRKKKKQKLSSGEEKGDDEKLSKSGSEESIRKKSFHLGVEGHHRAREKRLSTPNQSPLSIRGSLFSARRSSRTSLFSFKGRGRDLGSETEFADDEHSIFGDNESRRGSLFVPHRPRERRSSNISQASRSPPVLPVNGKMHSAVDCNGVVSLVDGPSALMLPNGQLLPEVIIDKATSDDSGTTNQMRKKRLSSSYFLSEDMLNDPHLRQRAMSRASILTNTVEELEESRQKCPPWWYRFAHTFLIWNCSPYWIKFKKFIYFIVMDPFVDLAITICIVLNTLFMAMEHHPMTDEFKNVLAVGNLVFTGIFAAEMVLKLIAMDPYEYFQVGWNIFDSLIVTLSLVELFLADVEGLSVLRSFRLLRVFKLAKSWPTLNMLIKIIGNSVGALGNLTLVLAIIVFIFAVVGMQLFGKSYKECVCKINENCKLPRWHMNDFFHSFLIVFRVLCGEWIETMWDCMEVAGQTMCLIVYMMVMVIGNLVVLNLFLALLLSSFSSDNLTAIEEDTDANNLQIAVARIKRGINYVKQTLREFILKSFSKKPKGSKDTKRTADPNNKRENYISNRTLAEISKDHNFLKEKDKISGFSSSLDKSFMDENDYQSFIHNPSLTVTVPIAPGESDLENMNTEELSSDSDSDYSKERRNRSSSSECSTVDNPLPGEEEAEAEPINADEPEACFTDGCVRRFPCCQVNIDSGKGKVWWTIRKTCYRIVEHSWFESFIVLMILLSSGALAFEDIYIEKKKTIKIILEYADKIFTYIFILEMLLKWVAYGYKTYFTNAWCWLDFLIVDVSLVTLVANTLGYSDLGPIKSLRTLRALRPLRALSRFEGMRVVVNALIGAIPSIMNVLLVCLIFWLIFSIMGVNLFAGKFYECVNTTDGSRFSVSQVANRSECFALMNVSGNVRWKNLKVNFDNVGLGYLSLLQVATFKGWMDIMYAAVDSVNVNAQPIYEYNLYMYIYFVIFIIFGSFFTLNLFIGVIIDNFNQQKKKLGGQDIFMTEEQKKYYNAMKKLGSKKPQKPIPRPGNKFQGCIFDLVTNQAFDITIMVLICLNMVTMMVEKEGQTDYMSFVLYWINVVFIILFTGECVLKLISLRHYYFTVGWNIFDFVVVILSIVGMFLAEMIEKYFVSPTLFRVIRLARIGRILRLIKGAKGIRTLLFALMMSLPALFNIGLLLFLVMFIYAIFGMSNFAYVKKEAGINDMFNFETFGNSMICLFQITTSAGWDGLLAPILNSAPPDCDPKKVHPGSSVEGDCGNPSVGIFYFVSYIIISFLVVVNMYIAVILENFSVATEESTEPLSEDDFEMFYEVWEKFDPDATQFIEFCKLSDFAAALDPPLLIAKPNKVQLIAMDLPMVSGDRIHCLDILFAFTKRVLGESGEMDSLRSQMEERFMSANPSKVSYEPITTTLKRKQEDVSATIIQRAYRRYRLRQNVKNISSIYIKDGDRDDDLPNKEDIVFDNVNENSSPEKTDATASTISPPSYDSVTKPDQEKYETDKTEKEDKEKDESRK

With COc1cc(NC(=O)c2ccc(-c3ccc(Cl)cc3)o2)cc(OC)c1 [A-803467] the “Block of total Na+ current” value ([1]; 1 μM, small diameter mDRG neurons) was 34.1 ± 3.0%.
In the case of NS(=O)(=O)c1cccc2c1c([N+](=O)[O-])cc1nc(O)c(O)nc12 [NBQX], the “Effect on Aδ and C fiber EPSCs” value ([2]; 5 μM, data not shown) is reported as “completely abolished”.
Nc1n[nH]cc1-c1cc(C(F)(F)F)ccc1Oc1cc(F)c(S(=O)(=O)Nc2cscn2)cc1Cl [PF-05198007, 4-(2-(3-amino-1H-pyrazol-4-yl)-4-(trifluoromethyl)phenoxy)-5-chloro-2-fluoro-N-(thiazol-4-yl)benzenesulfonamide] was tested, and the Slope (mouse Nav1.7) was 1.1, the Slope (mouse Nav1.1) was 0.7 and the “Block of total TTX-S current” value ([1]; 30 nM, in presence of A-803467) was 83.0 ± 2.7%. For the same compound, the “Neurons with action potential failure (complete block)” value ([3]; 30 nM, cells blocked/cells tested) was 6/13, the Spike amplitude ([3]; control 43.0 ± 3.3 mV) was 37.7 ± 3.9 mV and the Upstroke slope ([3]; control 137 ± 19 mV/ms) was 86 ± 11 mV/ms. For the same compound, the Action potential threshold ([3]; control -27.8 ± 2.0 mV) was -22.8 ± 1.6 mV, the Action potential rheobase ([3]; in presence of compound, control 173 ± 37 pA) was 239 ± 47 pA and the “Action potential rheobase after washout” value ([3]; wash, control 173 ± 37 pA) was 176 ± 35 pA. The “Latency of inward current” value (mDRG neurons) was “increased latency”, the “Peak amplitude of inward current” value (mDRG neurons) was “decrease in the peak amplitude” and the “Effect on action potentials evoked by injection of depolarizing current” value [4] was “no effects”. The “Neurons with dorsal root evoked action potentials abolished” value [4] was 8 out of 9, the “Veratridine evoked CGRP release” value ([5]; 30 nM, p < 0.05) was “significantly reduced” and the “Veratridine evoked CGRP release” value ([5]; 100 nM, p < 0.05) was “significantly reduced”. The “Capsaicin flare response, AUC” value (WT mice; 1 mg/kg oral) was 1967 ± 472, the “Capsaicin flare response, AUC” value (WT mice; 10 mg/kg oral) was 2265 ± 382 and the “Latency of the C-fiber mediated EPSC” value ([2]; 30 nM applied to the dorsal root only, p < 0.05) was “delay in the latency”. The inhibition at 0.03 µM ([6]; read-out: Inhibition of Aδ-fiber evoked EPSC amplitude) was 46.9 ± 5.4%, the inhibition at 0.03 µM ([6]; read-out: Inhibition of C-fiber evoked EPSC amplitude) was 53.7 ± 10.1% and the inhibition at 0.03 µM ([6]; read-out: Inhibition of C-fiber evoked EPSCs) was 87 ± 9%.
In the case of NC1=N[C@H](O)[C@H]2[C@H]3O[C@]4(O)O[C@@H]([C@@H](O)[C@@]2(N1)[C@@H]4O)[C@]3(O)CO [TTX, tetrodotoxin], the “Effect on current remaining after A-803467” value [1] is reported as “abolished” and the “Effect on Aδ and C fiber EPSCs” value [2] is reported as “completely abolished”.
With Cc1cccc(C)c1OCC(C)N (centres unmarked) [mexiletine, reference compound] the “Veratridine evoked CGRP release” value [5] was “significantly reduced”.
